Measured values taken from PMC11449769, “Structure-based virtual screening towards the discovery of novel thrombin inhibitors with Anti-HCC activities” (Frontiers in Chemistry, 2024).
Entries after “also recorded” stand apart in the source; their conditions may differ. Structures can show the parent of a compound that is named as a salt. Where two headings read alike, the source gives them in different places.

What was measured:
thrombin [1] = molecular target: T1, thrombin (Homo sapiens, UniProt P00734); assay: In vitro thrombin inhibition assay (fluorogenic substrate Ac-FVR-AMC); assay type: biochemical
T1 construct: a light chain A composed of 39 amino acid residues and a heavy chain B composed of 259 amino acid residues; purchased China National Institute for the Control of Pharmaceutical and Biological Products
Experimental: Lyophilized thrombin, which was purchased from China National Institute for the Control of Pharmaceutical and Biological Products, was reconstituted (5.4 μg/mL), added to the diluted solution, and pre-incubated at 37°C for 10 min.
sample: initial velocity of compound group; VDMSO: initial velocity of blank group, treated with DMSO alone; Inhibition rate (%) = 100/[1 + 10 (LogIC50−X)h], h represents Hill coefficient.

platelets = assay: Thrombin-induced platelet aggregation in vitro; assay type: cell-based, rats; conditions: drugs 3 mg/mL; thrombin 0.2 U/mL
Experimental: Blood was collected from rats and centrifuged for 10mins to obtain platelet-rich plasma, which was centrifuged again to collected platelets. The platelets were resus-pended and diluted to a concentration of 5 × 10^5/mL. PRP ([…]), and thrombin ([…]) were added to the platelet suspension in each group and incubated at 37°C. After incubation for 120 s, the reaction solution was well-mixed, and the same amount of thrombin ([…]) was added to a final concentration of 0.2 U/mL.

[2] = tested on: Hep3B, HepG2, HCCLM3 and HUh7 cells; assay: Thrombin-induced accelerated proliferation of HCC cells (MTS); assay type: cell-based; conditions: 0.5 μM drug, 0.5 U/mL thrombin; for thrombin-induced accelerated proliferation of tumor cells: 12 and 36 h, 4 liver cancer cell lines
Experimental: Cell lines Hep3B, HepG2, HCCLM3 and HUh7 were purchased from Shanghai Biolaf Biotechnology Co., Ltd., and certified by short tandem repeat profiling and mycoplasma and cell vitality testing. The proliferation rate was determined using a cell proliferation assay kit (TOPSCIENCE, C0005). Briefly, cells were seeded in 96-well plates at a concentration of 10,000 cells/well. MTS was added and incubated at 37°C for 2 h. The absorbance was measured at a wavelength of 490 nm. Three independent experiments were per-formed for each assay.

thrombin [3] = molecular target: T1, thrombin; assay: Thrombin time; conditions: drugs 3 mg/mL, thrombin 0.2 U/mL
HepG2 tumor = HepG2 tumor model in BALB/c nude mice; conditions: 28 days
Experimental: 20,000 HepG2 cells were injected into the fat pad of each female Balb/c mouse. The long and short diameters of the tumor were measured using a caliper. Medication was started when a rumor size of 100 mm^3 was reached. Sorafenib, ZXX-4, and sorafenib combined with ZXX-4 were administered for 28 days. The body weight and tumor size of the mice were measured twice a week. The mice were sacrificed after 28 days of treatment, the tumor weight was measured, and the number of metastases was counted by Indian ink staining of the lung.

BALB/c nude mice = assay: Single oral dose tolerance in BALB/c nude mice; assay type: in vivo; conditions: single oral administration of 500 mg/kg, 24 h
[4] = thrombin 5.4 μg/mL, substrate 5 μM, 37°C, read-out: IC50

Compound | IC50 (thrombin [1]; [4]) [nM] | thrombin time (in words) (thrombin [3]) | platelet aggregation rate (platelets) | thrombin-induced accelerated proliferation of tumor cells [2] | other results
C-Reactive Protein (CRP) 201–206 acetate [ZXX-17] | 52 ± 9 | significantly prolonged | less than 50% | reduced to different degrees | 
CNC(=O)c1cc(Oc2ccc(NC(=O)Nc3ccc(Cl)c(C(F)(F)F)c3)cc2)ccn1 [sorafenib, reference compound] |  |  |  |  | tumor weight (HepG2 tumor; ZXX-4 50 mg/kg/day and/or sorafenib 30 mg/kg/day, oral): slightly better than that of ZXX-4
C=C(c1ccccc1OCc1cccc(Cl)c1)n1ccnc1 [ZXX-11, CROCONAZOLE] |  | significantly prolonged | less than 50% | reduced to different degrees | IC50 (thrombin [1]): 72 ± 20 nM
CCCCCCOC(=O)N=C(N)c1ccc(NCc2nc3cc(C(=O)N(CCC(=O)OCC)c4ccccn4)ccc3n2C)cc1 [dabigatran etexilate, reference compound] |  |  | less than 50% | reduced to different degrees | 
[Sarl, Ile8]-Angiotensin II acetate [ZXX-4] | 23 ± 5 | significantly prolonged | less than 50% | reduced to different degrees | platelet aggregation rate compared with dabigatran etexilate (platelets): not significant; relative activity on thrombin-induced proliferation [2]: highest activity, which was comparable to dabigatran etexilate; HepG2 tumor growth (HepG2 tumor; 50 mg/kg/day oral): inhibited HepG2 tumor growth; number of lung metastatic nodules (HepG2 tumor; ZXX-4 50 mg/kg/day and/or sorafenib 30 mg/kg/day, oral, Indian ink staining): com-parable to that of sorafenib; also recorded: reduced tumor metastasis; effect on the efficacy of sorafenib (HepG2 tumor; ZXX-4 50 mg/kg/day with sorafenib 30 mg/kg/day, oral): enhanced; survival after single dose (BALB/c nude mice): survived; thrombin time (thrombin [3]; 180 s = upper limit of detection): 180 s

Continued, in another order:

IC50 (thrombin [1]; [4]) [nM] | thrombin time (in words) (thrombin [3]) | Compound | platelet aggregation rate (platelets) | thrombin-induced accelerated proliferation of tumor cells [2] | other results
175 ± 18 |  | Saralasin acetate [ZXX-1] |  |  | 
68 ± 12 | significantly prolonged | LSKL [ZXX-2] | less than 50% | reduced to different degrees | 
45 ± 10 | significantly prolonged | Fc1ccc(Cl)c(COc2cccc3onc(Nc4cccnc4)c23)c1 [ZXX-5, SMS2-IN-2] | less than 50% | reduced to different degrees | 
98 ± 15 |  | NCCOc1cc(C(=O)Nc2cc(OCCN)c3ccccc3n2)nc(C(=O)Nc2cc(OCCN)c3ccccc3n2)c1 [ZXX-20, Pyridostatin Trihydrochloride] |  |  | 
